Patent US10342804B2, “Steroid compound for use in the treatment of hepatic encephalopathy” (Umecrine Cognition AB, priority 2014, dated 2019)

What was measured:
[1] = biological target: T1, human α1β2γ2L GABAA receptors (Homo sapiens, UniProt P14867+P47870); test: Whole-cell voltage-clamp electrophysiology, HEK-293 cells expressing α1β2γ2L GABAA receptors; type: cell-based; details: for GAMSA effect: α1β2γ2L, 1 μM GAMSA, 30 μM GABA, AUC
T1 construct: expressed in transfected cells; host or cells: HEK-293, permanently transfected
T1 sequence (P14867 28-456): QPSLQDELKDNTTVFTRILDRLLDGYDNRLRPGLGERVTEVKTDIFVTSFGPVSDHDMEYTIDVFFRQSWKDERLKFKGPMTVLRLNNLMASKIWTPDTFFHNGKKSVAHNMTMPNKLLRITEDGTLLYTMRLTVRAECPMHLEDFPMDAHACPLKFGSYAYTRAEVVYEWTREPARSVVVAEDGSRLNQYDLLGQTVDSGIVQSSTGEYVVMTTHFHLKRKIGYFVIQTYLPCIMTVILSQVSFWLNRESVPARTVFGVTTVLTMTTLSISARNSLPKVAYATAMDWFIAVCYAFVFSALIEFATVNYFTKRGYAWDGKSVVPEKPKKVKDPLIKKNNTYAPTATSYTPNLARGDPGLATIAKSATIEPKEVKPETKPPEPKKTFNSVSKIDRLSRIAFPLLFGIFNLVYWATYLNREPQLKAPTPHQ
T1 sequence (P47870 25-512 limits assumed): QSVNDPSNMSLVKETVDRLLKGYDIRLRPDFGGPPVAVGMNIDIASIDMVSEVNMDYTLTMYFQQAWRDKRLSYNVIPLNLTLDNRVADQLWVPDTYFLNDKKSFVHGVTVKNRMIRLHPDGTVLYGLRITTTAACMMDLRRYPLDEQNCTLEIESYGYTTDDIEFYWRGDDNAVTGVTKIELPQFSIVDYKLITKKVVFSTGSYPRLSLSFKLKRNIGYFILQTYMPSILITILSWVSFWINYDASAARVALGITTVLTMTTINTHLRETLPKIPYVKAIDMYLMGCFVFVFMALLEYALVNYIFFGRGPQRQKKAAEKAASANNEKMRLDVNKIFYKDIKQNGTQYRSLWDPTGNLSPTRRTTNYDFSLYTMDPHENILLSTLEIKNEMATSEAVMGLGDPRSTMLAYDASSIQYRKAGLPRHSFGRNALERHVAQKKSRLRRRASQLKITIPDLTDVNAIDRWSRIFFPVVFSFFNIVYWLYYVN
T1 sequence (P18507 40-475 partner): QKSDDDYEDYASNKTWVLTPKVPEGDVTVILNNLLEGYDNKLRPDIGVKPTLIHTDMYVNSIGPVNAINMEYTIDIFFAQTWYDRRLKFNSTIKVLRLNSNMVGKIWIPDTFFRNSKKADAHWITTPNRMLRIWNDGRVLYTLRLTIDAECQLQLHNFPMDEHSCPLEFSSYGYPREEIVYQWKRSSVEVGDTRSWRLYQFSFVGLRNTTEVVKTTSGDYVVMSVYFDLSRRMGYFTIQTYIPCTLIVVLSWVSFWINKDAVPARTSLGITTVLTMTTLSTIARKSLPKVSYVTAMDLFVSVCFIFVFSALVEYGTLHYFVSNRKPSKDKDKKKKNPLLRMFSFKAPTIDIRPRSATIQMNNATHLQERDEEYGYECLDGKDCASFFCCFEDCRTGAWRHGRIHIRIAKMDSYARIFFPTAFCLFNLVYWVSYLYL
Procedure: For electrophysiology measurements the Dynaflow® system with the Resolve chip was used (Cellectricon, Göteborg, Sweden). HEK-293 cells were permanently transfected with vectors including the human CMV promoter for constitutive expression of the human α5, β3, and γ2L GABAA receptor subunits (α5β3γ2L) or the human α1, β2, and γ2L GABAA receptor subunits (α1β2γ2L). The cell lines used were selected for good reactivity to GABA and to THDOC. Before measurements cells were incubated for 15 min at 37° C. in 95% air+5% CO2 in extracellular solution (EC) containing the following: 137 mM NaCl, 5.0 mM KCl, 1.0 mM CaCl2, 1.2 mM MgCl2, 10 mM HEPES, and 10 mM glucose, 0.1% DMSO pH 7.4. Thereafter, detached cells were added to the EC solution in the Dynaflow chip bath.
Whole-cell voltage-clamp recordings were made at room temperature (21-23° C., −17 mV with compensation for liquid junction potential as in Haage et al., 2002; Neher, 1992). Command pulses were generate and data collected by PClamp 9.0 software, DigiData 1322A converter, and AxonPatch 200B (Axon Instruments, Foster City, Calif.). Patch electrodes (2-6 MΩ) were filled with intracellular solution (IC) including: 140 mM Cs-gluconate, 3.0 mM NaCl, 1.2 mM MgCl2, 10 mM HEPES, 1.0 mM EGTA, 2 mM Mg-ATP, 0.1% DMSO, pH 7.2.
THDOC and 3α-ethynyl-3β-hydroxyandrostan-17-one oxime were dissolved in dimethyl sulfoxide (DMSO) and thereafter diluted with EC solution to include 0.1% DMSO.
Different protocols were used for different electrophysiology measurements. As α1β2γ2L-GABAA receptors in vivo are present within the synapse a condition resembling that situation, a short application (40 ms) of a high GABA concentration (30 μM), was used. Contrary, α5β3γ2L-GABAA receptors are present extrasynaptically, thus the conditions used were long exposures (6 s) to a low GABA concentration (0.3 μM). The EC75 concentration of THDOC was used, i.e. 100 nM with studies of α1β2γ2L and 200 nM when α5β3γ2L expressing cells were evaluated. With both cell types a pre-exposure with THDOC or THDOC plus 3α-ethynyl-3β-hydroxyandrostan-17-one oxime was used before application of GABA.
Steroid effects in presence of GABA were normalized to controls in order to avoid the effects of inter- and intracellular variation in the measured parameters, each cell was used as its own control and the area under the curve (AUC) was analyzed.

hyperammonemic rats = test: Spatial memory in the Morris water maze, chronic hyperammonemia model (Example 3); type: in vivo, rat; details: 20 mg/kg s.c. once daily, 4th-5th week of treatment
Source text: In this study an animal model of chronic hyperammonemia was used that reproduces many of the cognitive and motor alterations present in hepatic encephalopathy. Rats were fed with ammonia in their food and after two weeks with ammonia enriched food they developed symptoms of hepatic encephalopathy. The beam walking test was made during the 3rd and 4th week of 3α-ethynyl-3β-hydroxyandrostan-17-one oxime treatment while the Morris Water maze test was made during 4th-5th week of 3α-ethynyl-3β-hydroxyandrostan-17-one oxime treatment and the Radial maze test was made during 6th-7th week of 3α-ethynyl-3β-hydroxyandrostan-17-one oxime treatment. […]
The test was carried out as follows; the first day was the pre-training day, rats were put in the water two times for 30 s only to adapt to water. […] The time, speed and path needed to find the hidden platform was recorded by a video tracking system provided by Viewpoint Company (Viewpoint 2.5, Champagne au Mont D′ Or, France) and used as a measure of learning of the task. After 15 training trial, the platform was removed from the pool, the rats were allowed to swim for 90 s in the pool and the time spent in the quadrant where the platform was positioned during training was recorded.

Question: With `C#C[C@]1(O)CC[C@@]2(C)C(CC[C@@H]3[C@@H]2CC[C@]2(C)/C(=N\O)CC[C@@H]32)C1` (stereo partly drawn) [3α-ethynyl-3β-hydroxyandrostan-17-one oxime] as the molecule, how does the inhibition at 1 µM ([1]; HEK293, read-out: Inhibition of the THDOC enhancement of GABA) read?
Answer: 29 ± 4.7%

Question: What about the GAMSA effect ([1]; 100 nM THDOC) of the same molecule?
Answer: −29 ± 4.7%

Question: And the GAMSA effect ([1]; no THDOC (GABA sole activator))?
Answer: −3.1±1.7%

Question: What about the GAMSA effect ([1]; no THDOC (GABA sole activator), listed as GAMSA) of the same molecule?
Answer: −3.1 ± 1.7%

Question: And the “Spatial memory in the Morris water maze (time to find the platform)” value (hyperammonemic rats)?
Answer: completely restored spatial memory
